Experimental data as given in patent US20250382657A1, “METHODS FOR MAPPING BINDING SITES OF COMPOUNDS” (Cambridge Enterprise Limited, priority 2022, published 2025).

How the values were obtained:
[1] = test system: DNA G-quadruplex; assay: Chemmap genome-wide mapping of G4 ligand binding sites (PDS, PhenDC3); design: species or system human; settings: K562 cells; biotinylated probes
Protocol: (§1) Cell preparation. U-2 OS cells were detached using accutase and immediately quenched using complete culture media. U-2 OS and K562 suspension cells were harvested by centrifugation and fixed in 0.1% formaldehyde (Thermo Scientific, 28906) in PBS for 2 min at room temperature, followed by quenching with glycine to a final concentration of 75 mM. Fixed cells were collected by centrifugation at 600×g for 4 min, followed by resuspension in cold wash buffer (20 mM HEPES pH7.5, 150 mM NaCl and 0.5 mM spermidine (Sigma, S0266)) in nuclease-free water supplemented with a complete Protease Inhibitor, EDTA-free (Sigma, 11873580001). (Note: For Chemmap of G4 ligands NaCl was replaced by equivalent concentrations of KCl in all buffers to maintain G4 stability. For optimal results, the concentration of cells needs to be adjusted based on target abundance and relative affinity of the probes. We employed cells at 1500 cells/μL (JQ1-bio) and 6000 cells/μL (G4 ligands and biotinylated doxorubicin))
(§2) Probe-1st Ab complex assembly. Compound stock solution in DMSO was diluted to 10 μM in antibody buffer (2 mM EDTA, 0.1% BSA (Sigma, A8577), 0.05% digitonin (EMD Millipore, 300410) in wash buffer). […]

[2] = test system: dsDNA; assay: FRET-melting assay; type: binding; settings: 1 μM; negative control dsDNA; n=2
Protocol: 400 nM FAM-TAMRA dual-labelled oligonucleotides (Biomers) were annealed in assay buffer (60 mM potassium cacodylate, pH=7.4) at 95° C. for 5 min followed by gradually cooling to 20° C. A series of probe concentrations were prepared in a 8-well strip tube: 150 μL of 6 μM ligand in assay buffer was prepared as the initial concentration. Subsequent serial dilutions were made by adding 100 μL of probe solutions to 50 μL of assay buffer, resulting in 12 concentrations including a control (1% DMSO). 25 μL per solutions were transferred to 96-well plate, followed by adding 25 μL of annealed oligonucleotide solutions to each well. The plate was then sealed with an adhesive transparent cover and shaken gently for 10 min at room temperature. Measurements of restoring FAM signal were recorded on a Bio-Rad CFX96 Touch Real-Time PCR Detection System employing a temperature gradient from 25° C. to 95° C. at 0.5° C./min. Melting temperatures were determined by the first derivative maxima of relative fluorescence unit (RFU) value against […], and ΔTm was calculated by baseline correction of melting temperatures subtracting control group. A one-site binding model in GraphPad Prism 7 was utilised to fit FRET Tm curves. Mean was calculated from two replicates.

[3] = test system: K562 cells; assay: Dox-bio1 Chemmap in Tucidinostat-treated K562 cells; type: cell-based, human; settings: Tucidinostat 1 μM, 72 h
Source text: Mycoplasma-free human chronic myelogenous leukemia K562 cells (RRID:CVCL_0004) derived from a person were purchased from ATCC and cultured in RPMI 1640 (Gibco, 21875034) supplemented with 10% heat-inactivated fetal bovine serum (FBS, Gibco, A3840401). Human bone osteosarcoma epithelial U-2 OS cells (RRID:CVCL_0042) derived from a moderately differentiated sarcoma of the tibia of a person osteosarcoma were obtained from ATCC and cultured in DMEM (Gibco, 41966029) supplemented with 10% FBS. Both cell lines were grown in accordance with ENCODE cell culture protocols and periodically tested for mycoplasma contamination and identity confirmed by short tandem repeat (STR) typing. HDAC inhibitors (HDACi) were prepared at 10 mM as stock solution in DMSO. Cells were treated with HDACi dissolved to 1 μM final concentration or an equal concentration of vehicle (0.1% DMSO) for 72 hs.
Cell preparation. U-2 OS cells were detached using accutase and immediately quenched using complete culture media. U-2 OS and K562 suspension cells were harvested by centrifugation and fixed in 0.1% formaldehyde (Thermo Scientific, 28906) in PBS for 2 min at room temperature, followed by quenching with glycine to a final concentration of 75 mM. […]

[4] = test system: genomic DNA; assay: Chemmap genome-wide mapping of biotinylated doxorubicin binding sites; design: species or system human; settings: K562 cells
Protocol: as §1
Probe-1st Ab complex assembly. Compound stock solution in DMSO was diluted to 10 μM in antibody buffer (2 mM EDTA, 0.1% BSA (Sigma, A8577), 0.05% digitonin (EMD Millipore, 300410) in wash buffer). For 5 samples, 20 μL probe solution (10 μM) and 16.7 μL anti-biotin (D5A7) Rabbit mAb (Cell Signaling Technology, 5597, concentration is ˜10 μM) were added to 200 μL antibody buffer and incubated on ice for 1 h to perform a complex at high concentration (probe in excess 1.2:1 to avoid non-specific antibody binding). […]
Bead capture. For 5 samples, 50 μL (JQ1-bio) or 75 μL (G4 ligands and biotinylated Doxorubicin) concanavalin A beads (Bangs Labs, BP531) were washed twice in 1 mL binding buffer (20 mM HEPES pH 7.5, 10 mM KCl, 1 mM CaCl2, 1 mM MnCl2 in nuclease-free water) and resuspended in 75 μL binding buffer. 100 µL of cell suspension were incubated with 10 μL pre-washed concanavalin A beads at 25° C. for 10 min at 600 rpm. Beads-bound cells were gently washed twice with wash buffer, before resuspending in 100 μL probe-1st Ab solution and incubating at 4° C. overnight at 600 rpm.
2nd Ab-Tn5 transposome complexes assembly. For 5 samples, 2.5 μL 2nd Ab (Antibodies-Online, ABIN101961, RRID:AB_10775589) and 5 μL pA-Tn5 were added to 200 μL Dig-300 buffer (20 mM HEPES pH 7.5, 300 mM NaCl, 0.5 mM spermidine, 0.01% digitonin in nuclease-free water supplemented with Complete Protease Inhibitor, EDTA-free) and incubated on ice for 1 h. 300 μL antibody buffer were added to the 2nd-Tn5 complexes solution. (2nd Ab-Tn5 complexes at a ratio of 2:1).
Tagmentation. Cells were washed 3× with 500 μL Dig-wash buffer (0.05% digitonin in wash buffer) and resuspended in 100 μL 2nd Ab-Tn5 transposome solution and incubated at 25° C. for 1 h at 600 rpm. […]

[5] = molecular target: T1, BRD4 (Homo sapiens, UniProt O60885); settings: K562 cells; published data; cited from earlier work
T1 construct: U-2 OS and K562 suspension cells were harvested by centrifugation and fixed in 0.1% formaldehyde; endogenous in cells; host or cells: K562 (human leukaemia) and U-2 OS cells

[6] = test system: DNA G-quadruplex; assay: PDS Chemmap after treatment of live K562 cells with unmodified PDS (competition); type: cell-based, human; settings: unmodified PDS 4 μM for 3 hr
Protocol: as §1, §2

[7] = molecular target: T1, BRD4; assay: Chemmap genome-wide mapping of JQ1 binding sites, compared with BRD4 CUT&Tag; settings: 150,000 K562 cells; JQ1-bio probe
Protocol: BRD4 CUT&Tag was performed as described before (H.S. Kaya-Okur, et al. Nat. Protoc., 15 (2020) e23641). Briefly, cells were incubated with activated concanavalin A-coated magnetic beads (Bangs Labs, BP531). The bead-bound cells were permeabilized and incubated with anti-BRD4 (E2A7X) rabbit antibody (Cell Signalling Technology, 13440), followed by rabbit anti-mouse IgG antibody (Antibodies-Online, ABIN101961, RRID:AB_10775589). Diluted pA-Tn5 adapter complex was then added followed by the tagmentation reaction. Extracted DNA fragments were used for library preparation and Illumina sequencing.

SMILES: C[n+]1cc(NC(=O)c2ccc3ccc4ccc(C(=O)Nc5cc6ccccc6[n+](C)c5)nc4c3n2)cc2ccccc21 [PhenDC3]
- overlap of high confidence binding sites with G4-seq data (OQS) [1]: ~88%
- ΔTm on dsDNA [2]: 0 °C

SMILES: Nc1cc(F)ccc1NC(=O)c1ccc(CNC(=O)/C=C/c2cccnc2)cc1 [Tucidinostat]
- effect on doxorubicin binding (differential binding analysis) [3]: enhances the binding of doxorubicin
- Dox-bio1 binding sites within initial open chromatin region ([3]; 95% in vehicle group): 42%

SMILES: NCCOc1cc(NC(=O)c2cc(OCCNC(=O)CCOCCOCCOCCOCCNC(=O)CCCC[C@@H]3SC[C@@H]4NC(=O)N[C@@H]43)cc(C(=O)Nc3cc(OCCN)c4ccccc4n3)n2)nc2ccccc12 [PDS-bio]
- ΔTm on dsDNA [2]: 0 °C

SMILES: COc1cccc2c1C(=O)c1c(O)c3c(c(O)c1C2=O)C[C@@](O)(C(=O)COC(=O)CCCC(=O)NCCOCCOCCOCCOCCNC(=O)CCCC[C@H]1SC[C@H]2NC(=O)N[C@H]21)C[C@@H]3O[C@H]1C[C@H](N)[C@H](O)[C@H](C)O1 [Dox-bio1]
- material recovered compared to other tested probes ([4]; 200 nM, same condition): up to 30 fold
- consensus peaks for both Dox-bio1 and ATAC-seq [4]: 12,896
- peaks located in open chromatin regions mapped by ATAC-seq [4]: 95%
- high confidence Dox-bio1 binding sites ([4]; depending on the probe concentration): around 14k

SMILES: Cc1sc2c(c1C)C(c1ccc(Cl)cc1)=N[C@@H](CC(=O)NCCCNC(=O)OC1CC/C=C\CCC1)c1nnc(C)n1-2 (stereo partly shown) [JQ1-TCO]
- signal averaged at BRD4 CUT&Tag high confidence loci [5]: close to the baseline

SMILES: C[n+]1cc(NC(=O)c2ccc3ccc4c(NCCCCNC(=O)CCc5cn(CCOCCOCCOCCNC(=O)CCCC[C@@H]6SC[C@@H]7NC(=O)N[C@@H]76)nn5)cc(C(=O)Nc5cc6ccccc6[n+](C)c5)nc4c3n2)cc2ccccc21 [PhenDC3-bio]
- ΔTm on dsDNA [2]: 0 °C

SMILES: NCCOc1cc(C(=O)Nc2cc(OCCN)c3ccccc3n2)nc(C(=O)Nc2cc(OCCN)c3ccccc3n2)c1 [PDS, Pyridostatin]
- overlap of high confidence binding sites with G4-seq data (OQS) [1]: ~89%
- ΔTm on dsDNA [2]: 0 °C
- PDS Chemmap sites lost compared to untreated [6]: ~6000
- PDS Chemmap sites lost compared to untreated (percent) [6]: 60%

SMILES: Cc1sc2c(c1C)C(c1ccc(Cl)cc1)=N[C@@H](CC(=O)NCCOCCOCCNC(=O)CCCC[C@@H]1SC[C@@H]3NC(=O)N[C@@H]31)c1nnc(C)n1-2 [JQ1-bio]
- JQ1 binding sites observed in each experiment [7]: around 10,000
